Assay results from PubChem BioAssay AID330 (DTP/NCI, 2004).
Several values for one entry are separate records, joined by “and”; a condition that tells them apart may be missing. Equal values may be shown once. Inconclusive results and toxic doses are left out.

System: P388 leukemia ip, CD2F1 mice, survival T/C
Experiment: NCI In Vivo Anticancer Drug Screen. Data for tumor model P388 Leukemia (intraperitoneal) in CD2F1 (CDF1) mice
Conditions: endpoint: median survival time, higher = longer survival
Method in brief: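 Mice carrying the transplanted tumor received test compound or vehicle. Survival was recorded in each group, and the value is the treated-group measurement divided by that of the vehicle-treated control group.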

[1] = dose: 50.0 mg/kg/injection, schedule: Q01DX005 (ip), vehicle: Klucel (hydroxypropylcellulose) (HPC)
[2] = dose: 100.0 mg/kg/injection, schedule: Q01DX005 (ip), vehicle: Klucel (hydroxypropylcellulose) (HPC)

With `Cc1cc(=O)n2[nH]c(-c3ccc(C(C)(C)C)cc3)cc2n1` the T/C (dose: 60.0 mg/kg/injection, schedule: Q01DX005 (ip), vehicle: saline with Tween-80) was 111 % of control, the T/C (dose: 120.0 mg/kg/injection, schedule: Q01DX005 (ip), vehicle: saline with Tween-80) was 109 % of control and the T/C (dose: 240.0 mg/kg/injection, schedule: Q01DX005 (ip), vehicle: saline with Tween-80) was 93 % of control.

With `CC1C(=O)C23CC1CCC2C12COC(O)C1C(C)(C)C(O)CC2OC3=O` (stereo not drawn) the T/C (dose: 12.5 mg/kg/injection, schedule: Q01DX005 (ip), vehicle: Klucel (hydroxypropylcellulose) (HPC)) was 100 % of control, the T/C (dose: 25.0 mg/kg/injection, schedule: Q01DX005 (ip), vehicle: Klucel (hydroxypropylcellulose) (HPC)) was 94 % of control and the T/C [1] was 100 % of control. For the same molecule, the T/C (dose: 61.5 mg/kg/injection, schedule: Q01DX005 (ip), vehicle: Klucel (hydroxypropylcellulose) (HPC)) was 96 % of control, the T/C [2] was 102 % of control and the T/C (dose: 123.0 mg/kg/injection, schedule: Q01DX005 (ip), vehicle: Klucel (hydroxypropylcellulose) (HPC)) was 106 % of control. The T/C (dose: 246.0 mg/kg/injection, schedule: Q01DX005 (ip), vehicle: Klucel (hydroxypropylcellulose) (HPC)) was 98 % of control.

`CCCN(CCC)C(C)C(O)c1cc2c(c3ccccc13)CCCC2` (stereo not drawn) was tested, and the T/C (dose: 100.0 mg/kg/injection, schedule: Q01DX009 (ip), vehicle: Klucel (hydroxypropylcellulose) (HPC)) was 109 % of control and the T/C (dose: 200.0 mg/kg/injection, schedule: Q01DX009 (ip), vehicle: Klucel (hydroxypropylcellulose) (HPC)) was 93 % of control.

`CC1C2C=CC1C=C2` (stereo not drawn) was tested, and the T/C (dose: 50.0 mg/kg/injection, schedule: Q01DX009 (ip), vehicle: saline) was 98 % of control, the T/C (dose: 100.0 mg/kg/injection, schedule: Q01DX009 (ip), vehicle: saline) was 91 % of control and the T/C (dose: 200.0 mg/kg/injection, schedule: Q01DX009 (ip), vehicle: saline) was 98 % of control.

With `COc1ccc2c(c1)[C@@]13CCCCC1[C@@H](C2)NCC3` (stereo partly drawn) the T/C (dose: 100.0 mg/kg/injection, schedule: Q04DX002 (ip), vehicle: Klucel (hydroxypropylcellulose) (HPC)) was 101 % of control.

`OC1CC2CCCCC2CC1c1ccccc1` (stereo not drawn) was tested, and the T/C (dose: 50.0 mg/kg/injection, schedule: Q04DX002 (ip), vehicle: saline with Tween-80) was 100 % of control and 92 % of control, the T/C (dose: 100.0 mg/kg/injection, schedule: Q04DX002 (ip), vehicle: saline with Tween-80) was 111 % of control and 92 % of control and the T/C (dose: 200.0 mg/kg/injection, schedule: Q04DX002 (ip), vehicle: saline with Tween-80) was 92 % of control and 97 % of control. For the same molecule, the T/C (dose: 400.0 mg/kg/injection, schedule: Q04DX002 (ip), vehicle: saline with Tween-80) was 116 % of control.

`C=C(C)C(=NC(C)C)Nc1ccccc1Cl` was tested, and the T/C [1] was 92 % of control and 108 % of control, the T/C [2] was 92 % of control and 107 % of control and the T/C (dose: 200.0 mg/kg/injection, schedule: Q01DX005 (ip), vehicle: Klucel (hydroxypropylcellulose) (HPC)) was 98 % of control.

In the case of `COC(=O)/C=C/COc1ccccc1C(=O)NCc1ccc([N+](=O)[O-])cc1`, the T/C (dose: 100.0 mg/kg/injection, schedule: Q04DX003 (ip), vehicle: Klucel (hydroxypropylcellulose) (HPC)) was 109 % of control, the T/C (dose: 200.0 mg/kg/injection, schedule: Q04DX003 (ip), vehicle: Klucel (hydroxypropylcellulose) (HPC)) was 108 % of control and the T/C (dose: 400.0 mg/kg/injection, schedule: Q04DX003 (ip), vehicle: Klucel (hydroxypropylcellulose) (HPC)) was 109 % of control.

`C/C(=N\NC(=S)N1CCC(c2ccccc2)CC1)c1ncccn1` was tested, and the T/C (dose: 12.5 mg/kg/injection, schedule: Q01DX005 (ip), vehicle: saline with Tween-80) was 110 % of control and the T/C (dose: 50.0 mg/kg/injection, schedule: Q01DX005 (ip), vehicle: saline with Tween-80) was 169 % of control.

For `CN(C)c1nc(OC2C(C3COC(C)(C)O3)OC3OC(C)(C)OC32)nc(N(C)C)n1` (stereo not drawn), the T/C (dose: 100.0 mg/kg/injection, schedule: Q04DX003 (ip), vehicle: saline with Tween-80) was 99 % of control, the T/C (dose: 200.0 mg/kg/injection, schedule: Q04DX003 (ip), vehicle: saline with Tween-80) was 100 % of control and the T/C (dose: 400.0 mg/kg/injection, schedule: Q04DX003 (ip), vehicle: saline with Tween-80) was 100 % of control.

In the case of `COc1cccc(C(=O)CC[N+](C)(C)C)c1`, the T/C (dose: 3.13 mg/kg/injection, schedule: Q01DX009 (ip), vehicle: saline with Tween-80) was 100 % of control, the T/C (dose: 6.25 mg/kg/injection, schedule: Q01DX009 (ip), vehicle: saline with Tween-80) was 102 % of control and the T/C (dose: 12.5 mg/kg/injection, schedule: Q01DX009 (ip), vehicle: saline with Tween-80) was 103 % of control.

In the case of `O=C1CC(C(=O)O)C(C(=O)O)O1` (stereo not drawn), the T/C (dose: 50.0 mg/kg/injection, schedule: Q01DX005 (ip), vehicle: saline) was 100 % of control, the T/C (dose: 100.0 mg/kg/injection, schedule: Q01DX005 (ip), vehicle: saline) was 111 % of control and the T/C (dose: 200.0 mg/kg/injection, schedule: Q01DX005 (ip), vehicle: saline) was 93 % of control.

In the case of `O=C(O)C1CC[N-]CC1.O=C(O)C1CC[N-]CC1.O=C(O)C1CC[N-]CC1.O=C(O)C1CC[N-]CC1.[Cl][Rh][Cl]`, the T/C (dose: 67.0 mg/kg/injection, schedule: Q01DX009 (ip), vehicle: saline with Tween-80) was 100 % of control, the T/C (dose: 100.0 mg/kg/injection, schedule: Q01DX009 (ip), vehicle: saline with Tween-80) was 109 % of control and the T/C (dose: 150.0 mg/kg/injection, schedule: Q01DX009 (ip), vehicle: saline with Tween-80) was 113 % of control.

For `Cc1ccc(OP(=O)(Oc2ccc(C)cc2)Oc2ccc(C)cc2)cc1.Cc1ccc(OP(=O)(Oc2ccc(C)cc2)Oc2ccc(C)cc2)cc1.Cc1ccc(OP(=O)(Oc2ccc(C)cc2)Oc2ccc(C)cc2)cc1.Cc1ccc(OP(=O)(Oc2ccc(C)cc2)Oc2ccc(C)cc2)cc1.[Cr+3].[O-][Cl+3]([O-])([O-])O`, the T/C (dose: 100.0 mg/kg/injection, schedule: Q01DX001 (ip), vehicle: Klucel (hydroxypropylcellulose) (HPC)) was 100 % of control, the T/C (dose: 200.0 mg/kg/injection, schedule: Q01DX001 (ip), vehicle: Klucel (hydroxypropylcellulose) (HPC)) was 96 % of control and the T/C (dose: 400.0 mg/kg/injection, schedule: Q01DX001 (ip), vehicle: Klucel (hydroxypropylcellulose) (HPC)) was 89 % of control.
